Experimental data taken from US20100286092A1, “BETA-LACTAMASE INHIBITORS” (priority 2007, published 2010).

Tests used:
Details in all cases: in the presence of a fixed amount (8 μg/mL) of Ceftazidime; CAMHB, 16-20 hours at 37° C.
[1] = system: K. pneumoniae expressing the Class A carbapenemase KPC-2
From the text: (§1) To determine the ability of test compounds to potentiate the inhibition of the growth of bacterial strains producing beta-lactamase enzymes, classic cell based screening assays were employed. Four bacteria strains producing beta-lactamase enzymes were used: K. pneumoniae expressing the Class A Extended Spectrum Beta-Lactamase (ESBL) CTX-M-15, E. coli expressing the Class A ESBL SHV-5, E. cloacae expressing the Class C P99+, and K. pneumoniae expressing the Class A carbapenemase KPC-2. In order to evaluate the ability of test compounds to inhibit beta-lactamase activity, Applicants used a modification of the broth microdilution assay. The assay was conducted in Cation Adjusted Mueller Hinton Broth (CAMHB, BD #212322, BD Diagnostic Systems, Sparks, Md.). Bacteria strains were grown for 3-5 hours in CAMBH broth. All four strains were grown in presence of 50 μg/mL ampicillin to ensure resistance is maintained. In the meantime, test compounds were diluted in DMSO to a 0.1 mg/mL stock. The compounds were added to a microtiter plate and were diluted in 2-fold serial dilutions in CAMHB in a final concentration range of 8 μg/mL to 0.015 μg/ml. An overlay of CAMHB containing a cephalosporin was added to the compounds at a final static concentration of 8 μg/ml. […] Each of these compound plates are made in quadruplicate, one for each bacteria strain. In addition to the titration of test compounds the MICs of a panel of cephalosporins is also tested to ensure the strains are behaving consistently from test to test. Once the test compound and cephalosporin are added the plates can be inoculated. Inocula are conducted according to CLSI broth microdilution method. After inoculation the plates are incubated for 16-20 hours at 37° C. then the Minimal Inhibitory Concentration (MIC) of the test compound is determined visually.
(§2) Using the methodology described above, examples of the current invention were evaluated for their ability to inhibit the growth of β-lactamase producing bacteria in the presence of a β-lactam antibiotic. […] NT=Not Tested.

[2] = system: E. cloacae expressing the Class C P99+; type: cell-based
From the text: as §1, §2

[3] = system: E. coli expressing the Class A ESBL SHV-5; type: cell-based
From the text: as §1, §2

[4] = system: K. pneumoniae expressing the Class A Extended Spectrum Beta-Lactamase (ESBL) CTX-M-15; type: cell-based
From the text: as §1, §2

| Compound | MIC of example compound, K. pneumoniae KPC-2 + 8 μg/mL CAZ [1] | MIC of example compound, E. cloacae P99 AmpC + 8 μg/mL CAZ [2] | MIC of example compound, E. coli SHV-5 + 8 μg/mL CAZ [3] | MIC of example compound, K. pneumoniae CTX-M-15 + 8 μg/mL CAZ [4] |
| --- | --- | --- | --- | --- |
| Cl.NCCOc1cccc(CC(=O)N[C@@H](Cc2cccc(C(=O)O)c2O)B(O)O)c1 [Example 4, (1R)-1-[3-(2-amino)-ethoxy-phenyl]acetylamino-1-(3-carboxy-2-hydroxy)benzyl-methylboronic acid hydrochloride] | C (C represents an MIC of <1 μg/mL) | C (C represents an MIC of <1 μg/mL) | C (C represents an MIC of <1 μg/mL) | C (C represents an MIC of <1 μg/mL) |
| O=C(Cc1ccccc1)N[C@@H](Cc1cccc(C(=O)O)c1O)B(O)O [Example 10] | C (C represents an MIC of <1 μg/mL) | C (C represents an MIC of <1 μg/mL) | C (C represents an MIC of <1 μg/mL) | C (C represents an MIC of <1 μg/mL) |
| COc1ccc(OC)c(CC(=O)N[C@@H](Cc2cccc(C(=O)O)c2O)B(O)O)c1 [Example 17, (1R)-1-(2-(2,5-dimethoxyphenyl)-acetylamino)-2-(2-hydroxy-3-carboxyphenyl)ethyl-1-boronic acid] | – | C (C represents an MIC of <1 μg/mL) | A (A represents an MIC>8 μg/mL) | C (C represents an MIC of <1 μg/mL) |
| CCCCC(=O)N[C@@H](Cc1cccc(C(=O)O)c1O)B(O)O [Example 23, (1R)-1-(pentanoylamino)-2-(2-hydroxy-3-carboxyphenyl)ethyl-1-boronic acid] | C (C represents an MIC of <1 μg/mL) | C (C represents an MIC of <1 μg/mL) | C (C represents an MIC of <1 μg/mL) | C (C represents an MIC of <1 μg/mL) |
| NCCC(=O)N[C@@H](Cc1cccc(C(=O)O)c1O)B(O)O.O=CO [Example 38, (1R)-1-(3-aminopropanoylamino)-2-(2-hydroxy-3-carboxyphenyl)ethyl-1-boronic acid formate salt] | C (C represents an MIC of <1 μg/mL) | – | A (A represents an MIC>8 μg/mL) | A (A represents an MIC>8 μg/mL) |
| Nc1nc(CC(=O)N[C@@H](Cc2cccc(C(=O)O)c2O)B(O)O)cs1.O=CO [Example 39, (1R)-1-(2-Amino-thiazol-4-yl)-acetylamino-1-(3-carboxy-2-hydroxy)benzyl-methylboronic acid formate salt] | C (C represents an MIC of <1 μg/mL) | C (C represents an MIC of <1 μg/mL) | C (C represents an MIC of <1 μg/mL) | C (C represents an MIC of <1 μg/mL) |
| NCC(=O)N[C@@H](Cc1cccc(C(=O)O)c1O)B(O)O.O=CO [Example 41, (1R)-1-(2-aminoacetylamino)-2-(2-hydroxy-3-carboxyphenyl)ethyl-1-boronic acid formate salt] | C (C represents an MIC of <1 μg/mL) | A (A represents an MIC>8 μg/mL) | A (A represents an MIC>8 μg/mL) | A (A represents an MIC>8 μg/mL) |
| O=C(O)c1cccc(C[C@H](NC(=O)c2c(Cl)cccc2Cl)B(O)O)c1O [Example 43, (1R)-1-(2,6-Dichlorobenzoyl)-amino-1-(3-carboxy-2-hydroxy)benzyl-methylboronic acid] | A (A represents an MIC>8 μg/mL) | – | A (A represents an MIC>8 μg/mL) | A (A represents an MIC>8 μg/mL) |
